{"source": "paper PMC9782601", "about": "“A Fucosylated Lactose-Presenting Tetravalent Glycocluster Acting as a Mutual Ligand of Pseudomonas aeruginosa Lectins A (PA-IL) and B (PA-IIL)—Synthesis and Interaction Studies” (International Journal of Molecular Sciences, 2022)", "assay_type_in_all_cases": "binding", "key": {"PA-IIL (LecB)": {"biological_target": "T1, PA-IIL (LecB) (Pseudomonas aeruginosa, UniProt Q9HYN5)", "T1 construct": "freeze-dried; tetramer, one sugar site with two calcium ions per monomer", "T1 sequence (Q9HYN5 entry or part of it)": "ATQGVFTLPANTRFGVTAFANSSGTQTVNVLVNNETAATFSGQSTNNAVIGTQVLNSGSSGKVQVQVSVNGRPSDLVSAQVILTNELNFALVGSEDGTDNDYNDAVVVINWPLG", "assay": "isothermal titration calorimetry, single-site model", "settings": "0.1 M Tris/HCl, 500 μM CaCl2, pH 7.5, 25 °C", "source_text": "isothermal titration calorimetry, single-site model on PA-IIL (LecB)"}, "PA-IL (LecA) [1]": {"biological_target": "T2, PA-IL (LecA) (Pseudomonas aeruginosa, UniProt Q05097)", "T2 construct": "freeze-dried; tetramer, one sugar site with one calcium ion per monomer", "T2 sequence (Q05097 2-122)": "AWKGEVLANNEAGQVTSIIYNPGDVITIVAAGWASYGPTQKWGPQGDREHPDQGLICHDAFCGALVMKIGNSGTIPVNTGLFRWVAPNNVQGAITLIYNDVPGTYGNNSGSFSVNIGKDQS", "assay": "isothermal titration calorimetry, single-site model", "settings": "0.1 M Tris/HCl, 500 μM CaCl2, pH 7.5, 25 °C", "source_text": "isothermal titration calorimetry, single-site model on PA-IL (LecA)"}, "PA-IL (LecA) [2]": {"biological_target": "T2, PA-IL (LecA)", "assay": "1H STD NMR, reference ligand", "settings": "4 mM ligand, 40 μM lectin, D2O, 20 mM Tris-d11, 150 mM NaCl, 5 mM CaCl2, pH 7.5, 283 K"}}, "data": [{"smiles": "C[C@@H]1O[C@@H](O[C@@H]2[C@@H](O)[C@H](OCc3cn(CCn4cc(COCC(COCc5cn(CCn6cc(CO[C@@H]7O[C@H](CO)[C@@H](O[C@@H]8O[C@H](CO)[C@H](O)[C@H](O)[C@H]8O)[C@H](O[C@@H]8O[C@@H](C)[C@@H](O)[C@@H](O)[C@@H]8O)[C@H]7O)nn6)nn5)(COCc5cn(CCn6cc(CO[C@@H]7O[C@H](CO)[C@@H](O[C@@H]8O[C@H](CO)[C@H](O)[C@H](O)[C@H]8O)[C@H](O[C@@H]8O[C@@H](C)[C@@H](O)[C@@H](O)[C@@H]8O)[C@H]7O)nn6)nn5)COCc5cn(CCn6cc(CO[C@@H]7O[C@H](CO)[C@@H](O[C@@H]8O[C@H](CO)[C@H](O)[C@H](O)[C@H]8O)[C@H](O[C@@H]8O[C@@H](C)[C@@H](O)[C@@H](O)[C@@H]8O)[C@H]7O)nn6)nn5)nn4)nn3)O[C@H](CO)[C@H]2O[C@@H]2O[C@H](CO)[C@H](O)[C@H](O)[C@H]2O)[C@@H](O)[C@H](O)[C@@H]1O", "note": "[compound 8, Compound 8]", "values": [{"measurement": "Ka [10^4 M^-1]", "setting": "PA-IIL (LecB); n = 1.12 pH, buffer, temperature, tetravalent ligand, n = 1.1", "result": "257 ± 66.9 10^4 M^-1"}, {"measurement": "Ka [10^4 M^-1]", "setting": "PA-IL (LecA) [1]; n = 0.51 pH, buffer, temperature, tetravalent ligand, n = 0.89", "result": "496 ± 104 10^4 M^-1"}]}, {"smiles": "CO[C@H]1O[C@H](CO)[C@H](O)[C@H](O)[C@H]1O", "note": "[Meα-D-Gal]", "values": [{"measurement": "STD signal", "setting": "PA-IL (LecA) [2]", "result": "The STD signals (highlighted by red ellipsoids) confirm the binding of Meα-D-Gal"}]}, {"smiles": "C#CCO[C@@H]1O[C@H](CO)[C@@H](O[C@@H]2O[C@H](CO)[C@H](O)[C@H](O)[C@H]2O)[C@H](O[C@@H]2O[C@@H](C)[C@@H](O)[C@@H](O)[C@@H]2O)[C@H]1O", "note": "[compound 6, Compound 6]", "values": [{"measurement": "Ka [10^4 M^-1]", "setting": "PA-IIL (LecB); n = 1.12", "result": "344 ± 124 10^4 M^-1"}, {"measurement": "Ka [10^4 M^-1]", "setting": "PA-IL (LecA) [1]; n = 0.51", "result": "59 ± 28.4 10^4 M^-1"}]}]}
